According to patent EP4471048A1, “PEPTIDE INHIBITORS OF INTERLEUKIN-23 RECEPTOR” (Zealand Pharma A/S, priority 2023, dated 2024):
Where two headings read alike, the source gives them in different places. One block for each molecule: values may come before it. *1 amine or outer side, *2 acyl side, *3 side chain or, on linkers, in order; H or OH if unused. Where a SMILES comes first, the peptide text is derived from it. Bridges are numbered along the chain shown (N, C = ends). Where no end group is shown, it is not given here. [ ]: non-standard residue; d: D form. 4‑Aminomethyl‑phenylacetyl = 4-aminomethyl-phenylacetyl unit, its amine closes the lactam, O=C(Cc1ccc(CN[*:1])cc1)[*:2]; 2Nal = N[C@@H](Cc1ccc2ccccc2c1)C(=O)O; AEF = NCCOc1ccc(C[C@H](N)C(=O)O)cc1; X1 = O=C(Cc1ccc(CN[*:1])cc1)[*:2]; 3Pal = N[C@@H](Cc1cccnc1)C(=O)O; αMeL = CC(C)C[C@](C)(N)C(=O)O; CH2COCH2 = O=C(C[*:1])C[*:2]; β3hK = NCCCC[C@H](N)CC(=O)O; 3Amb = NCc1cccc(C(=O)O)c1; Dab = NCC[C@H](N)C(=O)O

How the values were obtained:
[1] = target: T1, human IL-23R (Homo sapiens, UniProt Q5VWK5); test: biochemical
T1 sequence (Q5VWK5 22-629): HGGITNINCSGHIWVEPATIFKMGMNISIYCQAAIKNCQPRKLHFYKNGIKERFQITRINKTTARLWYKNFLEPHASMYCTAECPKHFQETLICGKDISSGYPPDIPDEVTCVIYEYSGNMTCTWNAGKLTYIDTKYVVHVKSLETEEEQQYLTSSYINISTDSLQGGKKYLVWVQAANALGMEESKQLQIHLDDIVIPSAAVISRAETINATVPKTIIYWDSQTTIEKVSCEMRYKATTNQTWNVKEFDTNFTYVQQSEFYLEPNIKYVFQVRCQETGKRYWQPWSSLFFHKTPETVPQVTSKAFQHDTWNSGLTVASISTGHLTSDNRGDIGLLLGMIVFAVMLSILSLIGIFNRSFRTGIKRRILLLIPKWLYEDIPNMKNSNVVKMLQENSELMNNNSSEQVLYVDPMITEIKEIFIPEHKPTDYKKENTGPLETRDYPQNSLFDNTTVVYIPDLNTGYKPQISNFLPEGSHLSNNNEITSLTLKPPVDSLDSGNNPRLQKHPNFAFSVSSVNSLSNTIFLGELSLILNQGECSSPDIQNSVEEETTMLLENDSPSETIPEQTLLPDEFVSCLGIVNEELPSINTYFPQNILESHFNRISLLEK
How it was run: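 Membranes from HEK293 cells stably expressing Nluc-tagged human IL-23R were incubated 2 h at room temperature with test compound and a fluorophore-labelled tracer. After substrate addition, loss of BRET (TAMRA over luciferase emission) reported tracer displacement. A 4PL fit gave IC50 values.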

[2] = target: IL-23 mediated signalling (Homo sapiens, UniProt Q5VWK5); test: Functional inhibition of IL-23 mediated STAT3 signalling (phospho-STAT3 MSD) in DB cells; format: cell-based; conditions: for Emax: maximal inhibitory response, read-out: hIL-23 (pSTAT3) antagonist % inhibition
How it was run: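 DB cells preincubated with inhibitor 15 min at 37 °C, then stimulated 90 min with EC80 human IL-23; lysate phospho-STAT3 measured by MSD electrochemiluminescence. Signal normalized to IL-23-alone and buffer controls; IC50 and maximal % inhibition from 4-parameter logistic fit.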

[3] = Peptide stability in simulated intestinal fluid (SIF); format: in vitro ADME; conditions: pig, 37 °C, porcine pancreatin; for remaining at 1 h, 10 µM: pH 6.8, 1 h; for remaining at 4 h, 10 µM: pH 6.8, 4 h, read-out: SIF (% remaining 4 h)
How it was run: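 Peptides were incubated at 37 °C with gentle shaking in pH 6.8 potassium phosphate SIF containing porcine pancreatin (10 g/L). Supernatants were analysed by LC-HRMS. Percent remaining at each timepoint, including 4 h, was calculated relative to time zero from absolute peak areas.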

[4] = Peptide stability in simulated gastric fluid (SGF); format: in vitro ADME; conditions: pig
How it was run: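 Peptide incubated at 37 °C with gentle shaking in SGF (NaCl, pH 1.2). Samples centrifuged, diluted and analysed by LC-HRMS; percent remaining at each timepoint from absolute peak areas relative to time zero, with 4 h as the reference point.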

[5] = target: T2, human IL-23R endogenously expressed on DB cells (human, UniProt Q5VWK5 24-629); test: cell-based or functional assay
T2 sequence (looked up): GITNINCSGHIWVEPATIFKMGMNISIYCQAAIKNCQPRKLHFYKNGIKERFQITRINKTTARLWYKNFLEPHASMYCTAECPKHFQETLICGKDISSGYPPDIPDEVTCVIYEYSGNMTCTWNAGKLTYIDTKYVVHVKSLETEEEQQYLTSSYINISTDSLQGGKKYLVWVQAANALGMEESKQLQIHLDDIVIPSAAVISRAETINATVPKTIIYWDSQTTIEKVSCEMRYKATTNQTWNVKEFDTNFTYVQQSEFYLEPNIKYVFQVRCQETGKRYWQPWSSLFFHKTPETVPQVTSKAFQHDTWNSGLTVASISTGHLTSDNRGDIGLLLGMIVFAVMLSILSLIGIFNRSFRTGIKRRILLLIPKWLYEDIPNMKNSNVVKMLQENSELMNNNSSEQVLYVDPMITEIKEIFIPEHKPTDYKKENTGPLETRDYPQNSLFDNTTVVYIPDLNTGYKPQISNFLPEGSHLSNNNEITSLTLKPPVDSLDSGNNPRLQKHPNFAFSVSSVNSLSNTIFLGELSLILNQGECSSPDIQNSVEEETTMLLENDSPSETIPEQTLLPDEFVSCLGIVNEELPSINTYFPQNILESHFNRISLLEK

[6] = Table 3-2, DB cells, hIL-23 at EC80, read-out: hIL-23 (pSTAT3) antagonist IC50
[7] = Table 3-2, DB cells, hIL-23 at EC80
[8] = simulated gastric fluid (SGF) with porcine pepsin (3.2 g/L), pH 1.2, 10 µM, 37 °C, porcine pepsin, pH 1.2, 1 h, read-out: SGF (% remaining 1 h)
[9] = simulated gastric fluid (SGF) with porcine pepsin (3.2 g/L), pH 1.2, 10 µM, 37 °C, porcine pepsin, pH 1.2, 4 h, read-out: SGF (% remaining 4 h)

Molecule: CC(C)C[C@@H]1NC(=O)[C@H](Cc2c[nH]c3ccccc23)NC(=O)[C@H](Cc2c[nH]c3ccccc23)NC(=O)[C@@H]2CSCC(=O)CSC[C@H](NC(=O)[C@H](CO)NC(=O)[C@@H](NC(=O)[C@@H](N)CC(=O)O)CCC(=O)NCCCC[C@@H](C(=O)N[C@@H](CCCNC(=N)N)C(N)=O)NC1=O)C(=O)N[C@@H](Cc1c[nH]c3ccccc13)C(=O)N[C@@H](CCC(N)=O)C(=O)N2 [Ref 4, H-DE(1c)SC(2a)WQC(2a)WWLK(1c)R-[NH2], reference compound] (HELM PEPTIDE1{D.E.S.C.W.Q.C.W.W.L.K.R.[am]}|CHEM1{[O=C(C[*:1])C[*:2]]}$PEPTIDE1,PEPTIDE1,2:R3-11:R3|PEPTIDE1,CHEM1,4:R3-1:R1|PEPTIDE1,CHEM1,7:R3-1:R2$$$V2.0)
% displacement (hIL-23R NIuc) [1]: 100%
IC50 [1]: 180 nM
Ki [1]: 143 nM
IC50 [2, 6]: 850 nM
Emax [2, 7]: 87%
remaining at 1 h, 10 µM [3]: 0%
remaining at 4 h, 10 µM [3]: 0%
remaining at 1 h, 10 µM [4, 8]: 1%
remaining at 4 h, 10 µM [4, 9]: 0%

Molecule: CC(C)C[C@]1(C)NC(=O)[C@H](Cc2ccc3ccccc3c2)NC(=O)[C@H](Cc2ccc(OCCN)cc2)NC(=O)[C@@H]2CSCC(=O)CSC[C@H](NC(=O)[C@H](CO)NC(=O)Cc3ccc(cc3)CNC(=O)CC[C@@H](C(=O)N[C@@H](CCN)C(=O)N[C@@H](Cc3cccnc3)C(N)=O)NC1=O)C(=O)N[C@@H](Cc1c[nH]c3ccccc13)C(=O)N[C@@H](CCC(N)=O)C(=O)N2 [Ref 120, [4-Aminomethyl-phenylacetyl](1c)*SC(2a)WQC(2a)[Y(2-aminoethoxy)][2-Nal][2-Me-Leu]E(1c)[Dab][3-(3-Pyridyl)-Ala]-[NH2], reference compound] ([X1]SCWQC[AEF][2Nal][αMeL]E[Dab][3Pal]-NH2; linker 3-6 via CH2COCH2; lactam N-10)
% displacement (hIL-23R NIuc) [1]: 94%
IC50 [1]: 0.011 nM
Ki [1]: 0.00938 nM
IC50 [2]: 0.054 nM
Emax [2, 7]: 101%
remaining at 1 h, 10 µM [3]: 82%
remaining at 4 h, 10 µM [3]: 39%
remaining at 1 h, 10 µM ([4]; simulated gastric fluid, pH 1.2, SGF (% remaining 1 h)): 84%
remaining at 4 h, 10 µM ([4]; simulated gastric fluid, pH 1.2, SGF (% remaining 4 h)): 81%

Molecule: CC(C)C[C@]1(C)NC(=O)[C@H](Cc2ccc3ccccc3c2)NC(=O)[C@H](Cc2ccc(OCCN)cc2)NC(=O)[C@@H]2CCNC(=O)CC[C@H](NC(=O)[C@H](CO)NC(=O)Cc3ccc(cc3)CNC(=O)CC[C@@H](C(=O)N[C@@H](CCN)C(=O)N[C@@H](Cc3cccnc3)C(N)=O)NC1=O)C(=O)N[C@@H](Cc1c[nH]c3ccccc13)C(=O)N[C@@H](CCC(N)=O)C(=O)N2 [Ref 122, [4-Aminomethyl-phenylacetyl](1c)*SE(2c)WQ[Dab](2c)[Y(2-aminoethoxy)][2-Nal][2-Me-Leu]E(1 c)[Dab][3-(3-Pyridyl)-Ala]-[NH2], reference compound]
% displacement (hIL-23R NIuc) [1]: 97%
IC50 [1]: 0.0066 nM
Ki [1]: 0.00541 nM
IC50 [2]: 0.028 nM
Emax [2, 7]: 99%
remaining at 1 h, 10 µM [3]: 73%
remaining at 4 h, 10 µM [3]: 25%
remaining at 1 h, 10 µM [4, 8]: 92%
remaining at 4 h, 10 µM [4, 9]: 90%

B1: Compound 99 (peptide)
peptide: [β3hK]GWQE[AEF][2Nal][αMeL]E[Dab][3Pal]-NHMe
modifications: lactam 1-9; lactam (positions not given here); not fully specified (bridges); also: beta-amine of residue 1 is in one of the two lactams
hIL-23 (pSTAT3) antagonist % inhibition [5]: 100%
hIL-23 (pSTAT3) antagonist IC50 [5]: 14 pM

Further lines, results first:

IC50 [1]: 87 nM
Ki [1]: 70.7 nM
IC50 [2, 6]: 370 nM
remaining at 1 h, 10 µM [3]: 0%
remaining at 4 h, 10 µM [3]: 0%
remaining at 1 h, 10 µM [4, 8]: 0%
remaining at 4 h, 10 µM [4, 9]: 0%
Molecule: CC(=O)N[C@@H](CC(=O)O)C(=O)N[C@H]1CCC(=O)NCCCC[C@@H](C(=O)N[C@@H](CCCNC(=N)N)C(N)=O)NC(=O)[C@H](CC(C)C)NC(=O)[C@H](Cc2ccc3ccccc3c2)NC(=O)[C@H](Cc2c[nH]c3ccccc23)NC(=O)[C@@H]2CSCC(=O)CSC[C@H](NC(=O)[C@H](CO)NC1=O)C(=O)N[C@@H](Cc1c[nH]c3ccccc13)C(=O)N[C@@H](CCC(N)=O)C(=O)N2 [Ref 17, [Ac]-DE(1c)SC(2a)WQC(2a)W[2-Nal]LK(1c)R-[NH2], reference compound]

% displacement (hIL-23R NIuc) [1]: 103%
IC50 [1]: 12 nM
Ki [1]: 9.87 nM
IC50 [2, 6]: 45 nM
Emax [2, 7]: 89%
remaining at 1 h, 10 µM [3]: 0%
remaining at 4 h, 10 µM [3]: 0%
remaining at 1 h, 10 µM [4, 8]: 2%
remaining at 4 h, 10 µM [4, 9]: 1%
Molecule: CC(C)C[C@@H]1NC(=O)[C@H](Cc2ccc3ccccc3c2)NC(=O)[C@H](Cc2c[nH]c3ccccc23)NC(=O)[C@@H]2CSCC(=O)CSC[C@H](NC(=O)[C@H](CO)NC(=O)c3cccc(c3)CNC(=O)CC[C@@H](C(=O)N[C@@H](CCCNC(=N)N)C(N)=O)NC1=O)C(=O)N[C@@H](Cc1c[nH]c3ccccc13)C(=O)N[C@@H](CCC(N)=O)C(=O)N2 [Ref 37, [(3-Aminomethyl)benzoyl](1c)*SC(2a)WQC(2a)W[2-Nal]LE(1c)R-[NH2], reference compound] ([3Amb]SCWQCW[2Nal]LER-NH2; linker 3-6 via CH2COCH2; lactam N-10)

% displacement (hIL-23R NIuc) [1]: 110%
IC50 [1]: 2.8 nM
Ki [1]: 2.31 nM
IC50 [2, 6]: 29 nM
Emax [2, 7]: 99%
remaining at 1 h, 10 µM [3]: 83%
remaining at 4 h, 10 µM [3]: 79%
remaining at 1 h, 10 µM [4, 8]: 93%
remaining at 4 h, 10 µM [4, 9]: 87%
Molecule: CC(C)C[C@]1(C)NC(=O)[C@H](Cc2ccc3ccccc3c2)NC(=O)[C@H](Cc2ccc(OCCN)cc2)NC(=O)[C@@H]2CSCC(=O)CSC[C@H](NC(=O)[C@H](CO)NC(=O)c3cccc(c3)CNC(=O)CC[C@@H](C(=O)N[C@H](CCCNC(=N)N)C(N)=O)NC1=O)C(=O)N[C@@H](Cc1c[nH]c3ccccc13)C(=O)N[C@@H](CCC(N)=O)C(=O)N2 [Ref 41, [(3-Aminomethyl)benzoyl](1c)*SC(2a)WQC(2a)[Y(2-aminoethoxy)][2-Nal][2-Me-Leu]E(1c)[{d}R]-[NH2], reference compound] ([3Amb]SCWQC[AEF][2Nal][αMeL]E[dR]-NH2; linker 3-6 via CH2COCH2; lactam N-10)

hIL-23 (pSTAT3) antagonist % inhibition [5]: 95%
hIL-23 (pSTAT3) antagonist IC50 [5]: 21 nM
Molecule: [4‑Aminomethyl‑phenylacetyl]SCWQC[AEF][2Nal][αMeL]ES-NH2 (lactam (positions not given here); bridge 3-6; not fully specified (bridges)) [Ref 81]

hIL-23 (pSTAT3) antagonist IC50 [5]: 21 nM
Molecule: [4‑Aminomethyl‑phenylacetyl]SEWQ[Dab][AEF][2Nal][αMeL]E[Dab]-NH2 (lactam (positions not given here); bridge 3-6; not fully specified (bridges)) [Ref 125]
